Measured values: the NIST ThermoML archive (doi:10.1016/j.jct.2013.10.023)
Numbers after ± are expanded uncertainties.

Assay: xn = mol fraction of the nth substance listed
Conditions: 101 kPa, Liquid; for viscosity: Capillary tube (Ostwald / Ubbelohde) method; for mass density: Vibrating tube method

For `CC(=O)[O-].CCn1cc[n+](C)c1` [1-ethyl-3-methylimidazolium acetate] + CCOS(=O)(=O)[O-].CCn1cc[n+](C)c1, the viscosity (298.15 K, x1 = 0.0993) was 97.2 ± 2.2 mPa·s, the viscosity (298.15 K, x1 = 0.2011) was 99.93 ± 2.3 mPa·s and the viscosity (298.15 K, x1 = 0.2973) was 101.8 ± 2.4 mPa·s. For the same compound, the viscosity (298.15 K, x1 = 0.3917) was 105.2 ± 2.5 mPa·s, the viscosity (298.15 K, x1 = 0.5069) was 110.1 ± 2.6 mPa·s and the viscosity (298.15 K, x1 = 0.5988) was 114.1 ± 2.8 mPa·s. For the same compound, the viscosity (298.15 K, x1 = 0.705) was 120.1 ± 3 mPa·s, the viscosity (298.15 K, x1 = 0.8012) was 125.8 ± 3.2 mPa·s and the viscosity (298.15 K, x1 = 0.9007) was 131 ± 3.3 mPa·s. For the same compound, the viscosity (298.15 K, x1 = 1) was 138.4 ± 3.6 mPa·s, the mass density (298.15 K, x1 = 0.0993) was 1226.62 ± 10 kg/m3 and the mass density (298.15 K, x1 = 0.2011) was 1214.23 ± 10 kg/m3. The mass density (298.15 K, x1 = 0.2973) was 1202.11 ± 10 kg/m3, the mass density (298.15 K, x1 = 0.3917) was 1189.85 ± 10 kg/m3 and the mass density (298.15 K, x1 = 0.5069) was 1174.26 ± 10 kg/m3. It also gave a mass density (298.15 K, x1 = 0.5988) of 1161.36 ± 10 kg/m3, a mass density (298.15 K, x1 = 0.705) of 1145.81 ± 10 kg/m3 and a mass density (298.15 K, x1 = 0.8012) of 1131.13 ± 10 kg/m3. For the same compound, the mass density (298.15 K, x1 = 0.9007) was 1115.5 ± 10 kg/m3, the mass density (298.15 K, x1 = 1) was 1099.04 ± 10 kg/m3 and the viscosity (308.15 K, x1 = 0.0993) was 61.11 ± 1.3 mPa·s. For the same compound, the viscosity (308.15 K, x1 = 0.2011) was 61.27 ± 1.3 mPa·s, the viscosity (308.15 K, x1 = 0.2973) was 62.35 ± 1.3 mPa·s and the viscosity (308.15 K, x1 = 0.3917) was 63.63 ± 1.3 mPa·s. The viscosity (308.15 K, x1 = 0.5069) was 65.47 ± 1.4 mPa·s, the viscosity (308.15 K, x1 = 0.5988) was 66.99 ± 1.4 mPa·s and the viscosity (308.15 K, x1 = 0.705) was 69.07 ± 1.5 mPa·s. It also gave a viscosity (308.15 K, x1 = 0.8012) of 71.01 ± 1.5 mPa·s, a viscosity (308.15 K, x1 = 0.9007) of 73.4 ± 1.6 mPa·s and a viscosity (308.15 K, x1 = 1) of 76.1 ± 1.6 mPa·s. It also gave a mass density (308.15 K, x1 = 0.0993) of 1219.9 ± 10 kg/m3, a mass density (308.15 K, x1 = 0.2011) of 1207.5 ± 10 kg/m3 and a mass density (308.15 K, x1 = 0.2973) of 1195.48 ± 10 kg/m3. The mass density (308.15 K, x1 = 0.3917) was 1183.26 ± 10 kg/m3, the mass density (308.15 K, x1 = 0.5069) was 1167.73 ± 10 kg/m3 and the mass density (308.15 K, x1 = 0.5988) was 1154.86 ± 10 kg/m3. The mass density (308.15 K, x1 = 0.705) was 1139.5 ± 10 kg/m3, the mass density (308.15 K, x1 = 0.8012) was 1124.87 ± 10 kg/m3 and the mass density (308.15 K, x1 = 0.9007) was 1109.3 ± 10 kg/m3. It also gave a mass density (308.15 K, x1 = 1) of 1092.95 ± 10 kg/m3, a viscosity (318.15 K, x1 = 0.0993) of 40.47 ± 0.85 mPa·s and a viscosity (318.15 K, x1 = 0.2011) of 41.05 ± 0.86 mPa·s. The viscosity (318.15 K, x1 = 0.2973) was 41.59 ± 0.87 mPa·s, the viscosity (318.15 K, x1 = 0.3917) was 42.12 ± 0.88 mPa·s and the viscosity (318.15 K, x1 = 0.5069) was 41.77 ± 0.88 mPa·s. It also gave a viscosity (318.15 K, x1 = 0.5988) of 43.3 ± 0.91 mPa·s, a viscosity (318.15 K, x1 = 0.705) of 43.93 ± 0.92 mPa·s and a viscosity (318.15 K, x1 = 0.8012) of 44.55 ± 0.93 mPa·s. It also gave a viscosity (318.15 K, x1 = 0.9007) of 45.24 ± 0.95 mPa·s, a viscosity (318.15 K, x1 = 1) of 45.9 ± 0.96 mPa·s and a mass density (318.15 K, x1 = 0.0993) of 1213.21 ± 10 kg/m3. The mass density (318.15 K, x1 = 0.2011) was 1200.9 ± 10 kg/m3, the mass density (318.15 K, x1 = 0.2973) was 1188.92 ± 10 kg/m3 and the mass density (318.15 K, x1 = 0.3917) was 1176.76 ± 10 kg/m3. For the same compound, the mass density (318.15 K, x1 = 0.5069) was 1161.31 ± 10 kg/m3, the mass density (318.15 K, x1 = 0.5988) was 1148.5 ± 10 kg/m3 and the mass density (318.15 K, x1 = 0.705) was 1133.15 ± 10 kg/m3. The mass density (318.15 K, x1 = 0.8012) was 1118.65 ± 10 kg/m3, the mass density (318.15 K, x1 = 0.9007) was 1103.14 ± 10 kg/m3 and the mass density (318.15 K, x1 = 1) was 1086.88 ± 10 kg/m3. It also gave a viscosity (328.15 K, x1 = 0.0993) of 29.06 ± 0.61 mPa·s, a viscosity (328.15 K, x1 = 0.2011) of 29.19 ± 0.61 mPa·s and a viscosity (328.15 K, x1 = 0.2973) of 29.32 ± 0.61 mPa·s. The viscosity (328.15 K, x1 = 0.3917) was 29.44 ± 0.62 mPa·s, the viscosity (328.15 K, x1 = 0.5069) was 29.58 ± 0.62 mPa·s and the viscosity (328.15 K, x1 = 0.5988) was 29.69 ± 0.62 mPa·s. The viscosity (328.15 K, x1 = 0.705) was 29.81 ± 0.63 mPa·s, the viscosity (328.15 K, x1 = 0.8012) was 29.91 ± 0.63 mPa·s and the viscosity (328.15 K, x1 = 0.9007) was 30 ± 0.63 mPa·s. The viscosity (328.15 K, x1 = 1) was 30.1 ± 0.63 mPa·s, the mass density (328.15 K, x1 = 0.0993) was 1206.59 ± 10 kg/m3 and the mass density (328.15 K, x1 = 0.2011) was 1194.33 ± 10 kg/m3. It also gave a mass density (328.15 K, x1 = 0.2973) of 1182.38 ± 10 kg/m3, a mass density (328.15 K, x1 = 0.3917) of 1170.26 ± 10 kg/m3 and a mass density (328.15 K, x1 = 0.5069) of 1154.88 ± 10 kg/m3. The mass density (328.15 K, x1 = 0.5988) was 1142.13 ± 10 kg/m3, the mass density (328.15 K, x1 = 0.705) was 1126.87 ± 10 kg/m3 and the mass density (328.15 K, x1 = 0.8012) was 1112.55 ± 10 kg/m3. For the same compound, the mass density (328.15 K, x1 = 0.9007) was 1097.01 ± 10 kg/m3, the mass density (328.15 K, x1 = 1) was 1080.86 ± 10 kg/m3 and the viscosity (338.15 K, x1 = 0.0993) was 20.7 ± 0.43 mPa·s. It also gave a viscosity (338.15 K, x1 = 0.2011) of 20.78 ± 0.44 mPa·s, a viscosity (338.15 K, x1 = 0.2973) of 20.84 ± 0.44 mPa·s and a viscosity (338.15 K, x1 = 0.3917) of 20.89 ± 0.44 mPa·s. For the same compound, the viscosity (338.15 K, x1 = 0.5069) was 20.92 ± 0.44 mPa·s, the viscosity (338.15 K, x1 = 0.5988) was 20.92 ± 0.44 mPa·s and the viscosity (338.15 K, x1 = 0.705) was 20.89 ± 0.44 mPa·s. The viscosity (338.15 K, x1 = 0.8012) was 20.86 ± 0.44 mPa·s, the viscosity (338.15 K, x1 = 0.9007) was 20.84 ± 0.44 mPa·s and the viscosity (338.15 K, x1 = 1) was 20.8 ± 0.44 mPa·s. It also gave a mass density (338.15 K, x1 = 0.0993) of 1200.01 ± 10 kg/m3, a mass density (338.15 K, x1 = 0.2011) of 1187.79 ± 10 kg/m3 and a mass density (338.15 K, x1 = 0.2973) of 1175.91 ± 10 kg/m3. For the same compound, the mass density (338.15 K, x1 = 0.3917) was 1163.85 ± 10 kg/m3, the mass density (338.15 K, x1 = 0.5069) was 1148.54 ± 10 kg/m3 and the mass density (338.15 K, x1 = 0.5988) was 1135.86 ± 10 kg/m3. The mass density (338.15 K, x1 = 0.705) was 1120.68 ± 10 kg/m3, the mass density (338.15 K, x1 = 0.8012) was 1106.35 ± 10 kg/m3 and the mass density (338.15 K, x1 = 0.9007) was 1090.93 ± 10 kg/m3. For the same compound, the mass density (338.15 K, x1 = 1) was 1074.86 ± 10 kg/m3, the viscosity (348.15 K, x1 = 0.0993) was 15.63 ± 0.33 mPa·s and the viscosity (348.15 K, x1 = 0.2011) was 15.58 ± 0.33 mPa·s. The viscosity (348.15 K, x1 = 0.2973) was 15.5 ± 0.33 mPa·s, the viscosity (348.15 K, x1 = 0.3917) was 15.39 ± 0.32 mPa·s and the viscosity (348.15 K, x1 = 0.5069) was 15.24 ± 0.32 mPa·s. For the same compound, the viscosity (348.15 K, x1 = 0.5988) was 15.1 ± 0.32 mPa·s, the viscosity (348.15 K, x1 = 0.705) was 14.91 ± 0.31 mPa·s and the viscosity (348.15 K, x1 = 0.8012) was 14.72 ± 0.31 mPa·s. It also gave a viscosity (348.15 K, x1 = 0.9007) of 14.51 ± 0.3 mPa·s, a viscosity (348.15 K, x1 = 1) of 14.28 ± 0.3 mPa·s and a mass density (348.15 K, x1 = 0.0993) of 1196.34 ± 10 kg/m3. For the same compound, the mass density (348.15 K, x1 = 0.2011) was 1184.12 ± 10 kg/m3, the mass density (348.15 K, x1 = 0.2973) was 1172.27 ± 10 kg/m3 and the mass density (348.15 K, x1 = 0.3917) was 1160.23 ± 10 kg/m3. It also gave a mass density (348.15 K, x1 = 0.5069) of 1144.94 ± 10 kg/m3, a mass density (348.15 K, x1 = 0.5988) of 1132.29 ± 10 kg/m3 and a mass density (348.15 K, x1 = 0.705) of 1117.12 ± 10 kg/m3. The mass density (348.15 K, x1 = 0.8012) was 1102.78 ± 10 kg/m3, the mass density (348.15 K, x1 = 0.9007) was 1087.39 ± 10 kg/m3 and the mass density (348.15 K, x1 = 1) was 1071.37 ± 10 kg/m3. It also gave a viscosity (358.15 K, x1 = 0.0993) of 12.57 ± 0.26 mPa·s, a viscosity (358.15 K, x1 = 0.2011) of 12.8 ± 0.27 mPa·s and a viscosity (358.15 K, x1 = 0.2973) of 12.95 ± 0.27 mPa·s. It also gave a viscosity (358.15 K, x1 = 0.3917) of 12.93 ± 0.27 mPa·s, a viscosity (358.15 K, x1 = 0.5069) of 12.9 ± 0.27 mPa·s and a viscosity (358.15 K, x1 = 0.5988) of 12.81 ± 0.27 mPa·s. It also gave a viscosity (358.15 K, x1 = 0.705) of 12.7 ± 0.27 mPa·s, a viscosity (358.15 K, x1 = 0.8012) of 12.47 ± 0.26 mPa·s and a viscosity (358.15 K, x1 = 0.9007) of 12.17 ± 0.26 mPa·s. It also gave a viscosity (358.15 K, x1 = 1) of 11.53 ± 0.24 mPa·s, a mass density (358.15 K, x1 = 0.0993) of 1187 ± 10 kg/m3 and a mass density (358.15 K, x1 = 0.2011) of 1174.89 ± 10 kg/m3. It also gave a mass density (358.15 K, x1 = 0.2973) of 1163.13 ± 10 kg/m3, a mass density (358.15 K, x1 = 0.3917) of 1151.18 ± 10 kg/m3 and a mass density (358.15 K, x1 = 0.5069) of 1136.03 ± 10 kg/m3. For the same compound, the mass density (358.15 K, x1 = 0.5988) was 1123.47 ± 10 kg/m3, the mass density (358.15 K, x1 = 0.705) was 1108.41 ± 10 kg/m3 and the mass density (358.15 K, x1 = 0.8012) was 1094.15 ± 10 kg/m3. For the same compound, the mass density (358.15 K, x1 = 0.9007) was 1078.94 ± 10 kg/m3 and the mass density (358.15 K, x1 = 1) was 1063.03 ± 10 kg/m3.
